Converted amounts (≈) assume the structure as drawn.
Tests used:
Test in all cases: In vitro antibacterial evaluation: minimum inhibitory concentration (MIC), broth dilution method
Format in all cases: cell-based
[1] = test system: Escherichia coli
[2] = test system: Streptococcus sp.; settings: 18 hours at 35° C.
Summary of the method: (§1)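 An MIC is reported for each organism as the least concentration giving inhibition, using broth dilution over 64-0.06 μg/mL with a 5×10^5 CFU/mL inoculum.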

[3] = test system: Staphylococcus sp.; settings: 18 hours at 35° C.
Summary of the method: as §1

[4] = test system: Escherichia coli; remark: listed apart in the source
Summary of the method: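 First, organisms are seeded at 5×10^5 CFU/mL into Muller-Hinton II […]. Next, antibiotic is applied across 64-0.06 μg/mL by broth dilution (NCCLS M7-A2). Finally, the lowest inhibitory concentration is recorded as MIC.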

[5] = test system: Enterococcus sp.; settings: for MIC Enterococcus faecalis (GC 2242) / MIC Enterococcus faecalis (GC 4552): 18 hours at 35° C.
Summary of the method: as §1

SMILES | MIC Escherichia coli (ATCC 25922) [1] [µg/mL] | MIC Streptococcus agalactiae (GC 4564) [2] [µg/mL] | MIC Streptococcus pyogenes (ID-3187) [2] [µg/mL] | MIC Coagulase Negative Staphylococcus (GC 4547) [3] [µg/mL] | MIC Coagulase Negative Staphylococcus (GC 4547) ([3]; broth dilution) [µg/mL] | MIC Coagulase Negative Staphylococcus (GC 4548) [3] [µg/mL] | MIC Coagulase Negative Staphylococcus (GC 4548) ([3]; broth dilution) [µg/mL] | MIC Coagulase Negative Staphylococcus (GC 4549) [3] [µg/mL] | MIC Coagulase Negative Staphylococcus (GC 4549) ([3]; broth dilution) [µg/mL] | MIC Coagulase Negative Staphylococcus (GC 4551) [3] [µg/mL] | MIC Coagulase Negative Staphylococcus (GC 4551) ([3]; broth dilution) [µg/mL] | MIC Staphylococcus aureus (ATCC 29213) [3] [µg/mL] | MIC Staphylococcus aureus (ATCC 29213) ([3]; broth dilution) [µg/mL] | MIC Staphylococcus aureus (GC 1131) [3] [µg/mL] | MIC Staphylococcus aureus (GC 1131) ([3]; broth dilution) [µg/mL] | MIC Staphylococcus aureus (GC 4541) [3] [µg/mL] | MIC Staphylococcus aureus (GC 4541) ([3]; broth dilution) [µg/mL] | MIC Staphylococcus aureus (GC 4542) [3] [µg/mL] | MIC Staphylococcus aureus (GC 4542) ([3]; broth dilution) [µg/mL] | MIC Staphylococcus aureus (GC 4544) [3] [µg/mL] | also measured
CC(C)CC(=O)OC1C(O)C(CO)OC(OC2C(CO)OC(Oc3ccc(CC4NC(=O)C(C(C)c5ccc(Cl)cc5)NC(=O)CNC(=O)C(CO)NC(=O)C(C(O)C5CNC(=N)N5C5OC(CO)C(O)C(O)C5O)NC(=O)C(C(O)C5CNC(=N)N5)NC4=O)cc3)C(O)C2O)C1O (stereo not drawn) [Example 262b] | >64 | 1 (≈ 0.707 µM) | 1 (≈ 0.707 µM) | 2 (≈ 1.41 µM) | 2 (≈ 1.41 µM) | 1 (≈ 0.707 µM) | 1 (≈ 0.707 µM) | 1 (≈ 0.707 µM) | 1 (≈ 0.707 µM) | 2 (≈ 1.41 µM) | 2 (≈ 1.41 µM) | 4 (≈ 2.83 µM) | 4 (≈ 2.83 µM) | 4 (≈ 2.83 µM) | 4 (≈ 2.83 µM) | 2 (≈ 1.41 µM) | 2 (≈ 1.41 µM) | 2 (≈ 1.41 µM) | 2 (≈ 1.41 µM) | 4 (≈ 2.83 µM) | MIC Staphylococcus aureus (GC 4544) ([3]; broth dilution): 4 µg/mL (≈ 2.83 µM); MIC Staphylococcus aureus (GC 4545) [3]: 2 µg/mL (≈ 1.41 µM); MIC Staphylococcus aureus (GC 4545) ([3]; broth dilution): 2 µg/mL (≈ 1.41 µM); MIC Staphylococcus aureus-SMITH (GC 4543) [3]: 1 µg/mL (≈ 0.707 µM); MIC Staphylococcus aureus-SMITH (GC 4543) ([3]; broth dilution): 1 µg/mL (≈ 0.707 µM); MIC Staphylococcus haemolyticus (GC 4546) [3]: 2 µg/mL (≈ 1.41 µM); MIC Staphylococcus haemolyticus (GC 4546) ([3]; broth dilution): 2 µg/mL (≈ 1.41 µM); MIC Escherichia coli (GC 4559) [4]: >64 µg/mL; MIC Escherichia coli (GC 4560) [4]: 1 µg/mL (≈ 0.707 µM); MIC Enterococcus avium (GC 4558) [5]: 16 µg/mL (≈ 11.3 µM); MIC Enterococcus faecalis (ATCC 29212) [5]: 32 µg/mL (≈ 22.6 µM); MIC Enterococcus faecalis (GC 2242) [5]: 16 µg/mL (≈ 11.3 µM); MIC Enterococcus faecalis (GC 4552) [5]: 32 µg/mL (≈ 22.6 µM); MIC Enterococcus faecalis (GC 4553) [5]: 32 µg/mL (≈ 22.6 µM); MIC Enterococcus faecalis (GC 4554) [5]: 32 µg/mL (≈ 22.6 µM); MIC Enterococcus faecium (GC 2243) [5]: 16 µg/mL (≈ 11.3 µM); MIC Enterococcus faecium (GC 4556) [5]: 16 µg/mL (≈ 11.3 µM); MIC Enterococcus faecium (GC 4557) [5]: 2 µg/mL (≈ 1.41 µM)
CC(C)CC(=O)OC1C(OC2C(CO)OC(Oc3ccc(CC4NC(=O)C(C(C)c5cccc(F)c5)NC(=O)CNC(=O)C(CO)NC(=O)C(C(O)C5CNC(=N)N5C5OC(CO)C(O)C(O)C5O)NC(=O)C(C(O)C5CNC(=N)N5)NC4=O)cc3)C(O)C2O)OC(CO)C(O)C1O (stereo not drawn) [Example 264a] | 64 (≈ 45.8 µM) | 8 (≈ 5.72 µM) | 4 (≈ 2.86 µM) | 8 (≈ 5.72 µM) | 8 (≈ 5.72 µM) | 4 (≈ 2.86 µM) | 4 (≈ 2.86 µM) | 4 (≈ 2.86 µM) | 4 (≈ 2.86 µM) | 16 (≈ 11.4 µM) | 16 (≈ 11.4 µM) | 16 (≈ 11.4 µM) | 16 (≈ 11.4 µM) | 16 (≈ 11.4 µM) | 16 (≈ 11.4 µM) | 16 (≈ 11.4 µM) | 16 (≈ 11.4 µM) | 16 (≈ 11.4 µM) | 16 (≈ 11.4 µM) | 8 (≈ 5.72 µM) | MIC Staphylococcus aureus (GC 4544) ([3]; broth dilution): 8 µg/mL (≈ 5.72 µM); MIC Staphylococcus aureus (GC 4545) [3]: 8 µg/mL (≈ 5.72 µM); MIC Staphylococcus aureus (GC 4545) ([3]; broth dilution): 8 µg/mL (≈ 5.72 µM); MIC Staphylococcus aureus-SMITH (GC 4543) [3]: 8 µg/mL (≈ 5.72 µM); MIC Staphylococcus aureus-SMITH (GC 4543) ([3]; broth dilution): 8 µg/mL (≈ 5.72 µM); MIC Staphylococcus haemolyticus (GC 4546) [3]: 8 µg/mL (≈ 5.72 µM); MIC Staphylococcus haemolyticus (GC 4546) ([3]; broth dilution): 8 µg/mL (≈ 5.72 µM); MIC Escherichia coli (GC 4559) [4]: >64 µg/mL; MIC Escherichia coli (GC 4560) [4]: 4 µg/mL (≈ 2.86 µM); MIC Enterococcus avium (GC 4558) [5]: >64 µg/mL; MIC Enterococcus faecalis (ATCC 29212) [5]: 64 µg/mL (≈ 45.8 µM); MIC Enterococcus faecalis (GC 2242) [5]: 64 µg/mL (≈ 45.8 µM); MIC Enterococcus faecalis (GC 4552) [5]: >64 µg/mL; MIC Enterococcus faecalis (GC 4553) [5]: >64 µg/mL; MIC Enterococcus faecalis (GC 4554) [5]: >64 µg/mL; MIC Enterococcus faecium (GC 2243) [5]: >64 µg/mL; MIC Enterococcus faecium (GC 4556) [5]: 64 µg/mL (≈ 45.8 µM); MIC Enterococcus faecium (GC 4557) [5]: 32 µg/mL (≈ 22.9 µM)
CC(C)CC(=O)OC1C(O)C(CO)OC(OC2C(CO)OC(Oc3ccc(CC4NC(=O)C(C(C)c5cccc(F)c5)NC(=O)CNC(=O)C(CO)NC(=O)C(C(O)C5CNC(=N)N5C5OC(CO)C(O)C(O)C5O)NC(=O)C(C(O)C5CNC(=N)N5)NC4=O)cc3)C(O)C2O)C1O (stereo not drawn) [Example 264b] | 64 (≈ 45.8 µM) | 4 (≈ 2.86 µM) | 4 (≈ 2.86 µM) | 4 (≈ 2.86 µM) | 4 (≈ 2.86 µM) | 4 (≈ 2.86 µM) | 4 (≈ 2.86 µM) | 4 (≈ 2.86 µM) | 4 (≈ 2.86 µM) | 8 (≈ 5.72 µM) | 8 (≈ 5.72 µM) | 8 (≈ 5.72 µM) | 8 (≈ 5.72 µM) | 8 (≈ 5.72 µM) | 8 (≈ 5.72 µM) | 8 (≈ 5.72 µM) | 8 (≈ 5.72 µM) | 8 (≈ 5.72 µM) | 8 (≈ 5.72 µM) | 8 (≈ 5.72 µM) | MIC Staphylococcus aureus (GC 4544) ([3]; broth dilution): 8 µg/mL (≈ 5.72 µM); MIC Staphylococcus aureus (GC 4545) [3]: 4 µg/mL (≈ 2.86 µM); MIC Staphylococcus aureus (GC 4545) ([3]; broth dilution): 4 µg/mL (≈ 2.86 µM); MIC Staphylococcus aureus-SMITH (GC 4543) [3]: 8 µg/mL (≈ 5.72 µM); MIC Staphylococcus aureus-SMITH (GC 4543) ([3]; broth dilution): 8 µg/mL (≈ 5.72 µM); MIC Staphylococcus haemolyticus (GC 4546) [3]: 4 µg/mL (≈ 2.86 µM); MIC Staphylococcus haemolyticus (GC 4546) ([3]; broth dilution): 4 µg/mL (≈ 2.86 µM); MIC Escherichia coli (GC 4559) [4]: >64 µg/mL; MIC Escherichia coli (GC 4560) [4]: 4 µg/mL (≈ 2.86 µM); MIC Enterococcus avium (GC 4558) [5]: 64 µg/mL (≈ 45.8 µM); MIC Enterococcus faecalis (ATCC 29212) [5]: 64 µg/mL (≈ 45.8 µM); MIC Enterococcus faecalis (GC 2242) [5]: 32 µg/mL (≈ 22.9 µM); MIC Enterococcus faecalis (GC 4552) [5]: 64 µg/mL (≈ 45.8 µM); MIC Enterococcus faecalis (GC 4553) [5]: 64 µg/mL (≈ 45.8 µM); MIC Enterococcus faecalis (GC 4554) [5]: 64 µg/mL (≈ 45.8 µM); MIC Enterococcus faecium (GC 2243) [5]: 64 µg/mL (≈ 45.8 µM); MIC Enterococcus faecium (GC 4556) [5]: 64 µg/mL (≈ 45.8 µM); MIC Enterococcus faecium (GC 4557) [5]: 8 µg/mL (≈ 5.72 µM)

— patent publication US8247211B2, “Glycopeptide antibiotics” (American Cyanamid Company, priority 2001, dated 2012)
